Columns and labels:
[1] = molecular target: T1, human AT1 receptor (Homo sapiens, UniProt P30556); experiment: AT1 receptor antagonistic activity: [125I]-angiotensin II binding assay on human AT1 receptor-expressing CHO-K1 cellular membrane fraction; conditions: 22.5 pM [125I]-angiotensin II, 1 hr room temperature
T1 construct: expressed in transfected cells; membrane fraction
T1 sequence (P30556 1-359): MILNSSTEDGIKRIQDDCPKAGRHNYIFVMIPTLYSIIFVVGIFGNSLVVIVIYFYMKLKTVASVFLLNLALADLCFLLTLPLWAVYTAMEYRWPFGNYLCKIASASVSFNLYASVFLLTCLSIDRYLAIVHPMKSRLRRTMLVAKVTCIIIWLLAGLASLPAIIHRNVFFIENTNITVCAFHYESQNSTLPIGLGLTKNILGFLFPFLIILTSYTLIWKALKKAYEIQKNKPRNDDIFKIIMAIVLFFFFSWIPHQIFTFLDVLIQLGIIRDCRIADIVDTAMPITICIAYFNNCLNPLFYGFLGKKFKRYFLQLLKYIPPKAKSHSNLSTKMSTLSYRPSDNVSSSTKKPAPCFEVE
Procedure, shortened: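 Competition binding used radiolabelled angiotensin II on stably transfected CHO-K1 membrane fractions in Tris pH 7.4/MgCl2 buffer, optionally containing 0.3 mg/mL fatty acid-free BSA, 1 hr at room temperature. Filtration onto GF/C separated bound tracer, and nonspecific binding was measured with candesartan.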

[2] = molecular target: T2, human PPARγ (Homo sapiens, UniProt P37231); experiment: PPARγ agonistic activity: luciferase reporter assay in PPARγ:RXRα:4ERPP/CHO-K1 cells; format: cell-based; conditions: CHO-K1, test compound 10^−6 M; luciferase activity of control compound X (1 μM) = 100%, non-administration group = 0%
T2 construct: expressed in transfected cells
T2 sequence (P37231 1-477 isoform P37231-2): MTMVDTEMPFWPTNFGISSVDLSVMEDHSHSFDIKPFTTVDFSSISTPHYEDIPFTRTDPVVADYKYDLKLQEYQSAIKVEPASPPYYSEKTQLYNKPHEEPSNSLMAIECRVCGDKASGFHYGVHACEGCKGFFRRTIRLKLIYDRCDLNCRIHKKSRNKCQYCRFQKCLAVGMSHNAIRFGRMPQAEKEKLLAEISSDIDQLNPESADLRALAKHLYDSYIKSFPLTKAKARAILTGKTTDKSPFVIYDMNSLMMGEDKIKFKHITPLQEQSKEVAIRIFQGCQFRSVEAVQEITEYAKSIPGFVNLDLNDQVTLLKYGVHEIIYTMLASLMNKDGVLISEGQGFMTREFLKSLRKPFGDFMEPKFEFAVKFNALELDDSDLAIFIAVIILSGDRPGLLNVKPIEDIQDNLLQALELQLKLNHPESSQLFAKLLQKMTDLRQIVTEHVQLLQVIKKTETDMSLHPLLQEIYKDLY
T2 sequence (P19793 1-462 partner): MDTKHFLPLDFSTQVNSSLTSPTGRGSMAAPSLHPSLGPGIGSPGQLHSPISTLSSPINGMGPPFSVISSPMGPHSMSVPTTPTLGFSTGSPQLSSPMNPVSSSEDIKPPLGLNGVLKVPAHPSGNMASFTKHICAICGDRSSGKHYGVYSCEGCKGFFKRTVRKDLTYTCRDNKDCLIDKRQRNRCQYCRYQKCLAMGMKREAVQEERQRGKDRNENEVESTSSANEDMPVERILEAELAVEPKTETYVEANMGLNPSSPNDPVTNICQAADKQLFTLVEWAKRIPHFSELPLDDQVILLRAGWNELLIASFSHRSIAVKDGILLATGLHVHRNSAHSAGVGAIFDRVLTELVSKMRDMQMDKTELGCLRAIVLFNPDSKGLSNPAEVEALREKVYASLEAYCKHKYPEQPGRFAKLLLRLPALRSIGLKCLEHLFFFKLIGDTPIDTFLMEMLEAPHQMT
Procedure, shortened: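 CHO-K1 cells stably carrying hPPARγ/RXRα and a 4ERPP luciferase reporter, dosed with test compound for 1 day at 37 °C in Ham's F12 with 0.1% fatty acid-free BSA. Luciferase read by luminescence; activity given as % of 1 μM control compound X (100%) versus untreated (0%).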

| SMILES | IC50 [1] [nM] | activation at 1 µM [2] [%] |
| --- | --- | --- |
| CCCc1c(Cc2ccc(-c3ccccc3-c3noc(=O)[nH]3)cc2)c(=O)n(CCC)c2ncnn12 [Example 29, 6-{[2′-(5-oxo-4,5-dihydro-1,2,4-oxadiazol-3-yl)biphenyl-4-yl]methyl}-4,7-dipropyl[1,2,4]triazolo[1,5-a]pyrimidin-5(4H)-one] | 3 | 16 |
| CCCc1c(Cc2ccc(-c3ccccc3-c3noc(=O)[nH]3)cc2)c(=O)n([C@H]2CC[C@](C)(OCCO)CC2)c2ncnn12 [Example 183, 4-[trans-4-(2-hydroxyethoxy)-4-methylcyclohexyl]-6-{[2′-(5-oxo-4,5-dihydro-1,2,4-oxadiazol-3-yl)biphenyl-4-yl]methyl}-7-propyl[1,2,4]triazolo[1,5-a]pyrimidin-5(4H)-one] | 2.5 | 30 |
| CCCc1c(Cc2ccc(-c3ccccc3-c3noc(=O)[nH]3)cc2)c(=O)n([C@H]2CC[C@H](c3nnc(C)o3)CC2)c2ncnn12 [Example 173, 4-[trans-4-(5-methyl-1,3,4-oxadiazol-2-yl)cyclohexyl]-6-{[2′-(5-oxo-4,5-dihydro-1,2,4-oxadiazol-3-yl)biphenyl-4-yl]methyl}-7-propyl[1,2,4]triazolo[1,5-a]pyrimidin-5(4H)-one] | 1.7 | 28 |
| CCCc1c(Cc2ccc(-c3ccccc3-c3noc(=O)[nH]3)cc2)c(=O)n([C@H]2CC[C@H](OCC(O)CC)CC2)c2ncnn12 (stereo partly drawn) [Example 326, 4-[trans-4-(2-hydroxybutoxy)cyclohexyl]-6-{[2′-(5-oxo-4,5-dihydro-1,2,4-oxadiazol-3-yl)biphenyl-4-yl]methyl}-7-propyl[1,2,4]triazolo[1,5-a]pyrimidin-5(4H)-one] | 1.8 | 29 |
| CCCc1c(Cc2ccc(-c3ccccc3-c3noc(=O)[nH]3)cc2)c(=O)n(CC2(C)CC2)c2nc(C)nn12 [Example 69, 2-methyl-4-[(1-methylcyclopropyl)methyl]-6-{[2′-(5-oxo-4,5-dihydro-1,2,4-oxadiazol-3-yl)biphenyl-4-yl]methyl}-7-propyl[1,2,4]triazolo[1,5-a]pyrimidin-5(4H)-one] | 1.4 | 27 |
| CCCc1c(Cc2ccc(-c3ccccc3-c3noc(=O)[nH]3)cc2)c(=O)n([C@H]2CC[C@]3(CCC(CO)O3)CC2)c2ncnn12 (stereo partly drawn) [Example 391, 4-[(5S,8S)-2-(hydroxymethyl)-1-oxaspiro[4.5]dec-8-yl]-6-{[2′-(5-oxo-4,5-dihydro-1,2,4-oxadiazol-3-yl)biphenyl-4-yl]methyl}-7-propyl[1,2,4]triazolo[1,5-a]pyrimidin-5(4H)-one] | 3.1 | 28 |
| C=CC(O)CO[C@H]1CC[C@H](n2c(=O)c(Cc3ccc(-c4ccccc4-c4noc(=O)[nH]4)cc3)c(CCC)n3ncnc32)CC1 (stereo partly drawn) [Example 331, 4-{trans-4-[(2-hydroxybut-3-en-1-yl)oxy]cyclohexyl}-6-{[2′-(5-oxo-4,5-dihydro-1,2,4-oxadiazol-3-yl)biphenyl-4-yl]methyl}-7-propyl[1,2,4]triazolo[1,5-a]pyrimidin-5(4H)-one] | 2 | 33 |
| CCCc1c(Cc2ccc(-c3ccccc3-c3noc(=O)[nH]3)cc2)c(=O)n([C@H]2CC[C@H](OCC3(O)CC3)CC2)c2ccnn12 [Example 427, 4-{trans-4-[(1-hydroxycyclopropyl)methoxy]cyclohexyl}-6-{[2′-(5-oxo-4,5-dihydro-1,2,4-oxadiazol-3-yl)biphenyl-4-yl]methyl}-7-propylpyrazolo[1,5-a]pyrimidin-5(4H)-one] | 1.9 | 18 |
| CCCc1c(Cc2ccc(-c3ccccc3-c3noc(=O)[nH]3)cc2)c(=O)n([C@H]2CC[C@]3(CC2)CC(C)=NO3)c2ncnn12 [Example 204, 4-[(5R,8R)-3-methyl-1-oxa-2-azaspiro[4.5]dec-2-en-8-yl]-6-{[2′-(5-oxo-4,5-dihydro-1,2,4-oxadiazol-3-yl)biphenyl-4-yl]methyl}-7-propyl[1,2,4]triazolo[1,5-a]pyrimidin-5(4H)-one] | 2.7 | 26 |
| CCCc1c(Cc2ccc(-c3ccccc3-c3noc(=O)[nH]3)cc2)c(=O)n([C@H]2CC[C@@](C)(O)CC2)c2ncnn12 [Example 275, 4-(cis-4-hydroxy-4-methylcyclohexyl)-6-{[2′-(5-oxo-4,5-dihydro-1,2,4-oxadiazol-3-yl)biphenyl-4-yl]methyl}-7-propyl[1,2,4]triazolo[1,5-a]pyrimidin-5(4H)-one] | 2.5 | 31 |
| CCCc1c(Cc2ccc(-c3ccccc3-c3noc(=O)[nH]3)cc2)c(=O)n([C@H]2CC[C@H](OCC(C)(C)O)CC2)c2nc(C)nn12 [Example 296, 4-[trans-4-(2-hydroxy-2-methylpropoxy)cyclohexyl]-2-methyl-6-{[2′-(5-oxo-4,5-dihydro-1,2,4-oxadiazol-3-yl)biphenyl-4-yl]methyl}-7-propyl[1,2,4]triazolo[1,5-a]pyrimidin-5(4H)-one] | 1.7 | 29 |
| CCCc1c(Cc2ccc(-c3ccccc3-c3noc(=O)[nH]3)cc2)c(=O)n([C@H]2CC[C@H](OC(C)C(C)(C)O)CC2)c2ncnn12 (single isomer, unassigned) [Example 319, 4-[trans-4-(2-hydroxy-1,2-dimethylpropoxy)cyclohexyl]-6-{[2′-(5-oxo-4,5-dihydro-1,2,4-oxadiazol-3-yl)biphenyl-4-yl]methyl}-7-propyl[1,2,4]triazolo[1,5-a]pyrimidin-5(4H)-one (retention time: long)] | 2 | 16 |
| CCCc1c(Cc2ccc(-c3ccccc3-c3noc(=O)[nH]3)cc2)c(=O)n([C@H]2CC[C@@H](Oc3ccon3)CC2)c2ncnn12 [Example 281, 4-[cis-4-(isoxazol-3-yloxy)cyclohexyl]-6-{[2′-(5-oxo-4,5-dihydro-1,2,4-oxadiazol-3-yl)biphenyl-4-yl]methyl}-7-propyl[1,2,4]triazolo[1,5-a]pyrimidin-5(4H)-one] | 1.8 | 42 |
| CCCc1c(Cc2ccc(-c3ccccc3-c3noc(=O)[nH]3)cc2)c(=O)n(Cc2ccc(CC)nc2)c2nc(C)nn12 [Example 7, 4-[(6-ethylpyridin-3-yl)methyl]-2-methyl-6-{[2′-(5-oxo-4,5-dihydro-1,2,4-oxadiazol-3-yl)biphenyl-4-yl]methyl}-7-propyl[1,2,4]triazolo[1,5-a]pyrimidin-5(4H)-one] | 2.4 | 26 |
| CCCc1c(Cc2ccc(-c3ccccc3-c3noc(=O)[nH]3)cc2)c(=O)n([C@H]2CC[C@H](Oc3ccc(C(C)=O)cc3)CC2)c2ncnn12 [Example 278, 4-[trans-4-(4-acetylphenoxy)cyclohexyl]-6-{[2′-(5-oxo-4,5-dihydro-1,2,4-oxadiazol-3-yl)biphenyl-4-yl]methyl}-7-propyl[1,2,4]triazolo[1,5-a]pyrimidin-5(4H)-one] | 2.7 | 22 |
| CCCc1c(Cc2ccc(-c3ccccc3-c3noc(=O)[nH]3)cc2F)c(=O)n([C@H]2CC[C@H](OCC3(O)CCC3)CC2)c2ncnn12 [Example 252, 6-{[3-fluoro-2′-(5-oxo-4,5-dihydro-1,2,4-oxadiazol-3-yl)biphenyl-4-yl]methyl}-4-{trans-4-[(1-hydroxycyclobutyl)methoxy]cyclohexyl}-7-propyl[1,2,4]triazolo[1,5-a]pyrimidin-5(4H)-one] | 2.4 | 40 |
| C=CCOC1CCC(n2c(=O)c(Cc3ccc(-c4ccccc4-c4noc(=O)[nH]4)cc3)c(CCC)n3ncnc23)CC1 (stereo not shown) [Example 153, 6-{[2′-(5-oxo-4,5-dihydro-1,2,4-oxadiazol-3-yl)biphenyl-4-yl]methyl}-4-[4-(prop-2-en-1-yloxy)cyclohexyl]-7-propyl[1,2,4]triazolo[1,5-a]pyrimidin-5(4H)-one] | 1.9 | 53 |

Source: patent US8283353B2, “Fused ring compound and use thereof” (Takeda Pharmaceutical Company Limited, priority 2009, dated 2012)
